Like-named read-outs stand apart in the source and are kept apart here.
Assays:
[1] = test system: B6 BMDMs; experiment: Cell death kinetics, Sytox Green on Incucyte; type: cell-based
[2] = target: T1, Human recombinant FAP (Homo sapiens, UniProt Q12884)
T1 sequence (Q12884 26-760 limits assumed): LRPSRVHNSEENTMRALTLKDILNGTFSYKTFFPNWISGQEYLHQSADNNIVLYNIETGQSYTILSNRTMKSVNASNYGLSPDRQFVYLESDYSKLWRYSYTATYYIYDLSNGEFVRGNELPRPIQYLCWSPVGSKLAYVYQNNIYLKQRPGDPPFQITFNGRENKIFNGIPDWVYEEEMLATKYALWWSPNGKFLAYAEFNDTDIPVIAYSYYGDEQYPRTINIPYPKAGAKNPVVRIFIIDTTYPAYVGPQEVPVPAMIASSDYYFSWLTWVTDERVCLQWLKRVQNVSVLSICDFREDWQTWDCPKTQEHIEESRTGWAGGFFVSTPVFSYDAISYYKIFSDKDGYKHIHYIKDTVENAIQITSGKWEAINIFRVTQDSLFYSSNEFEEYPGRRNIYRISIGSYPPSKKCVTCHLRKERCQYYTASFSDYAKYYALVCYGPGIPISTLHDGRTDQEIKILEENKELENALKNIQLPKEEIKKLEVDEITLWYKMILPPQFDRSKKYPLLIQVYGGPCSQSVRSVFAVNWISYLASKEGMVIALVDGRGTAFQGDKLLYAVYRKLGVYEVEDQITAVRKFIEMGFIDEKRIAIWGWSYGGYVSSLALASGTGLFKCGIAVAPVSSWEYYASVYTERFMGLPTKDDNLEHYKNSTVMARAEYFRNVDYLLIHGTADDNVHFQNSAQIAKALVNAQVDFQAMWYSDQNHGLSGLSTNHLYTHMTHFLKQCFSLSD
Description: FAP and PREP were assayed in buffer containing 0.1 M Tris–HCl (pH 8), 300 mM NaF, 1 mM EDTA, 50 mM salicylic acid, and 5 mM DTT.

[3] = test system: B6^Nlrp1b+ BMDMs; experiment: Cell death kinetics, Sytox Green on Incucyte; type: cell-based, mouse; conditions: for time to reach 30% half-maximal level of pyroptosis: VBP: all tested concentrations (10, 25, 40 μM), 1G244: 10 μM
[4] = target: T2, Human DPP2 (Homo sapiens, UniProt Q9UHL4)
Description: (§1) Lys-Ala-paranitroanilide (Lys-Ala-pNA) was used as substrate at a final concentration of 1 mM.

[5] = target: T2, Human DPP2; experiment: biochemical
Description: as §1

[6] = test system: LPS-primed B6^Nlrp1b+ BMDMs; experiment: IL-1β and IL-18 secretion, Luminex multiplex assay; type: cell-based, mouse
[7] = test system: B6^Nlrp1b+ BMDMs; experiment: Caspase-1 cleavage by immunoblot; type: cell-based, mouse; conditions: for caspase-1 maturation to p20 (in words): LPS-primed 3 h, 10 or 40 μM, 4, 8 and 24 h; for caspase-1 maturation (in words): LPS-primed, 4 and 8 h
[8] = target: T3, human DPP9 (Homo sapiens, UniProt Q86TI2); conditions: for Inhibitor in lysate / Inhibitor in medium: mouse, 15 min, 10 µM
[9] = target: T3, human DPP9; experiment: biochemical
[10] = test system: B6^Nlrp1b+GSDMD^−/− macrophages; experiment: Apoptosis induction, confocal bright-field imaging; type: cell-based, mouse; conditions: 10 μM; 4 h
[11] = test system: B6^Nlrp1b+ BMDMs; experiment: ASC speck formation, confocal imaging; type: cell-based, mouse; conditions: 10 μM; 4 or 8 h
Description: Cells were stained with anti-ASC (1:200) antibody, followed by secondary anti-rabbit DyLight 594 (1:1,000). Then, slides were mounted on ProLong Gold Antifade reagent with DAPI for analysis. For quantification of ASC specks, analyses were performed on a spinning-disk system (Zeiss), using an observer Z.1 microscope equipped with a Yokogawa disk CSU-X1. Fluorescent images were acquired with the use of a Plan-Apochromat 40×/1.4 oil DIC III objective and a Rolera Em-C2 Camera. Tile scanning was performed combining 4 × 5 images for the final mosaic (total area 7.42 mm × 5.91 mm). The maximum intensity projections of the final mosaic were analysed on Volocity 6.3.1 (PerkinElmer) software for the number of cells containing ASC specks. Seven mosaics were quantified per experimental condition from each biological repeat and the data from all repeats were combined. One-way ANOVA with Tukey’s multiple comparisons analysis was performed in GraphPad Prism 6.0 software.

[12] = test system: B6^Nlrp1b+C1^−/−C11^−/−ASC^−/− macrophages; experiment: Cell death morphology, confocal bright-field imaging; type: cell-based, mouse; conditions: 10 μM; 4 h
[13] = test system: B6^Nlrp1b+ASC^−/− BMDMs; experiment: Cell death kinetics, Sytox Green on Incucyte; type: cell-based, mouse; conditions: 10 μM
[14] = test system: B6^Nlrp1b+ASC^−/− BMDMs; experiment: Caspase-1 cleavage by immunoblot; type: cell-based, mouse; conditions: 10 μM; 8 h
[15] = test system: J774.A1 cells; experiment: Cell death kinetics, Sytox Green on Incucyte; conditions: 10 μM and 25 μM
[16] = test system: B6^Nlrp1b+C1^−/−C11^−/− macrophages; experiment: Caspase-8 cleavage by immunoblot; type: cell-based, mouse; conditions: 10 μM; 4 h
[17] = calibration curve in cell lysate
[18] = cell lysate of BMDMs that received 10 µM for 15 min
[19] = medium of BMDMs that received 10 µM for 15 min
[20] = Ic50, calibration curve in cell lysate
[21] = Ic50, calibration curve in medium

T3 sequence (Q86TI2 whole entry): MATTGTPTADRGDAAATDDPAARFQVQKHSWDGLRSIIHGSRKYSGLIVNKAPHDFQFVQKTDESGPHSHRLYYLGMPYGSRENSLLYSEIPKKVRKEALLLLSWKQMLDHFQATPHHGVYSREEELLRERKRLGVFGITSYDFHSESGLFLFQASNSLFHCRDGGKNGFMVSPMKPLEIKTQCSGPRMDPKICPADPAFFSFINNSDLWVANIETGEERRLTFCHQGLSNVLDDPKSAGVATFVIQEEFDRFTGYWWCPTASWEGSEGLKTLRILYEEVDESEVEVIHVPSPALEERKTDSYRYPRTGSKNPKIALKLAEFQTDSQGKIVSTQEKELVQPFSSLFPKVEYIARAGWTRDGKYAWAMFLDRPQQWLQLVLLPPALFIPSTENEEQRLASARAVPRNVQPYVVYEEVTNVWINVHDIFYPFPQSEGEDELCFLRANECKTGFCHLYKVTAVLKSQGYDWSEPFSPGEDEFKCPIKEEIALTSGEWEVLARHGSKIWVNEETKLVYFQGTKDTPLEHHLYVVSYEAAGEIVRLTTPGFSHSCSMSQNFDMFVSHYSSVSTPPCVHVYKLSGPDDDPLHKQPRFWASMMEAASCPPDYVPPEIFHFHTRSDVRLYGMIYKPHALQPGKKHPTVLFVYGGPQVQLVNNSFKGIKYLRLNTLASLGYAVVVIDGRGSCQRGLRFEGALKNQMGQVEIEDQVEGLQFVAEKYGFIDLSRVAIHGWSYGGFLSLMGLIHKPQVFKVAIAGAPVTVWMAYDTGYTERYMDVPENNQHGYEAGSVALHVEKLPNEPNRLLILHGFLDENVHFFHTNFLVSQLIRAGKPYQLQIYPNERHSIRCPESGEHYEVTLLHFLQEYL

## N#C[C@@H]1CC(F)(F)CN1C(=O)CNC(=O)c1ccnc2ccccc12 [UAMC1110]
[1]; 10, 25 and 40 μM
  cell death induction (in words): none of the listed inhibitors triggered a cell death response
[2]; [17]
  Slope factor: 1.21 ± 0.07
[2]; calibration curve in medium
  Slope factor: 1.2 ± 0.1
[2]; [18]
  Inhibition: 100%
[2]; [19]
  Inhibition: 100%
[2]; mouse, 15 min, 10 µM
  Inhibitor in lysate: 0.4 µM
  Inhibitor in medium: 8.8 µM
[3]; 10, 25 and 40 μM
  cell death induction (in words): none of the listed inhibitors triggered a cell death response

## N[C@@H](CCNCc1ccc(Cl)cc1)C(=O)N1CCCCC1 [UAMC39]
[1]; 10, 25 and 40 μM
  cell death induction (in words): none of the listed inhibitors triggered a cell death response
[4]; [17]
  Slope factor: 1.3 ± 0.3
[4]; calibration curve in medium
  Slope factor: 1.4 ± 0.1
[4]; [18]
  Inhibition: 100%
[4]; [19]
  Inhibition: 100%
[4]; mouse, 15 min, 10 µM
  Inhibitor in lysate: 120/66
  Inhibitor in medium: 52/45
[3]; 10, 25 and 40 μM
  cell death induction (in words): none of the listed inhibitors triggered a cell death response
[5]; [20]
  IC50: 6 ± 1 nM
[5]; [21]
  IC50: 9.8 ± 0.6 nM

## N#C[C@@H]1CCCN1C(=O)[C@@H]1CCCN1C(=O)CCCc1ccccc1 [KYP-2047]
[1]; 10, 25 and 40 μM
  cell death induction (in words): none of the listed inhibitors triggered a cell death response
[3]; 10, 25 and 40 μM
  cell death induction (in words): none of the listed inhibitors triggered a cell death response

## CC(C)[C@@H]1[NH2+][B-](O)(O)[C@@H]2CCCN2C1=O [cVBP]
[6]; 10 μM
  secretion of IL-1β and IL-18 (in words): less efficient in eliciting extracellular secretion of IL-1β and IL-18
[6]; 40 μM
  secretion of IL-1β and IL-18 (in words): triggered substantial extracellular release of IL-1β and IL-18
[7]
  caspase-1 maturation to p20 (in words): caspase-1 p20 cleavage was detected only in lysates of macrophages that had been treated with the highest concentration (40 μM)
[1]; 10, 25 and 40 μM
  cell death induction (in words): failed to induce cell death
[8]; [17]
  Slope factor: 1.4 ± 0.2
[8]; calibration curve in medium
  Slope factor: 1.33 ± 0.08
[8]; [18]
  Inhibition: 2.7%
[8]; [19]
  Inhibition: 71%
[8]
  Inhibitor in lysate: 0.3 µM
  Inhibitor in medium: 3.2 µM
[8]; relative to VBP
  attenuation in ability to inhibit DPP9 activity in vitro: more than 100 fold
[9]; [20]
  IC50: 1600 ± 100 nM
[9]; [21]
  IC50: 1700 ± 80 nM
[3]; 10, 25 and 40 μM
  cell death induction (in words): induced significant pyroptosis

## N[C@@H](CC(=O)N1CCn2c(nnc2C(F)(F)F)C1)Cc1cc(F)c(F)cc1F [sitagliptin]
[1]; 10, 25 and 40 μM
  cell death induction (in words): none of the listed inhibitors triggered a cell death response
[3]; 10, 25 and 40 μM
  cell death induction (in words): none of the listed inhibitors triggered a cell death response

## N[C@@H](CC(=O)N1CCN(C(c2ccc(F)cc2)c2ccc(F)cc2)CC1)C(=O)N1Cc2ccccc2C1 [1G244]
[6]; 10 or 40 μM, 4, 8 or 24 h
  secretion of IL-1β and IL-18 (in words): potently triggered secretion of IL-1β and IL-18
[10]
  apoptosis induction (in words): potently induce apoptosis
[7]
  caspase-1 maturation to p20 (in words): efficiently promoted caspase-1 auto-maturation
[7]; 1 μM
  caspase-1 maturation (in words): triggered weak caspase-1 processing
[1]; 10 μM or 25 μM
  time at which pyroptosis commences: around 10 h
[1]; by 24 h, 10 μM or 25 μM
  pyroptosis, share of the cell population: ~20%
[1]; by 24 h, 40 μM
  pyroptosis level: 40%
[11]
  ASC speck formation (in words): marked ASC speck formation
[12]
  cell death (in words): remained alive and were fully rescued from apoptosis and pyroptosis induction
[13]
  reduction of maximal level of pyroptosis compared with ASC-sufficient B6^Nlrp1b+ macrophages: about 50%
[8]; [17]
  Slope factor: 1.30 ± 0.09
[8]; calibration curve in medium
  Slope factor: 1.39 ± 0.09
[8]; [18]
  Inhibition: 98%
[8]; [19]
  Inhibition: 100%
[8]
  Inhibitor in lysate: 0.06 µM
  Inhibitor in medium: 1.5 µM
[9]; [20]
  IC50: 10 ± 0.6 nM
[9]; [21]
  IC50: 15.3 ± 0.8 nM
[14]
  caspase-1 maturation (in words): blunted
[3]; 0.1 μM
  cell death induction (in words): failed to trigger a cytotoxic response
[3]; 1 μM
  cell death induction (in words): induced a reduced level of pyroptosis
[3]; 10 μM, by 6 h posttreatment
  plateau of pyroptosis: about 60%
[3]
  time to reach 30% half-maximal level of pyroptosis: ≤ 2 h

## CC(C)[C@H](N)C(=O)N1CCC[C@H]1B(O)O [VBP, Val-boroPro]
[6]; 10 or 40 μM, 4, 8 or 24 h
  secretion of IL-1β and IL-18 (in words): potently released IL-1β
[10]
  apoptosis induction (in words): potently induce apoptosis
[7]
  caspase-1 maturation to p20 (in words): triggered marked caspase-1 cleavage
[7]; 0.1 μM
  caspase-1 maturation (in words): failed to induce caspase-1 auto-cleavage
[7]; 1 μM
  caspase-1 maturation (in words): sufficient to trigger caspase-1 maturation
[1]; 10, 25 and 40 μM
  time required to reach 30% cytotoxicity: about 8 h
[1]; by 6 h, 10, 25 and 40 μM
  level of pyroptosis (SG-positive cells relative to Triton X100): ~20%
[1]; by 24 h, 10, 25 and 40 μM
  plateau cytotoxicity: approximately 50%
[1]; rebuttal letter, on Figure 1a
  time to reach the same level of cell death induction (35%): approximately 9 h
[15]
  cytotoxic response (in words): elicited a swift and robust cytotoxic response
[11]
  ASC speck formation (in words): marked ASC speck formation
[16]
  caspase-8 cleavage (in words): marked ASC-dependent caspase-8 cleavage
[12]
  cell death (in words): remained alive and were fully rescued from apoptosis and pyroptosis induction
[13]
  reduction of maximal level of pyroptosis compared with ASC-sufficient B6^Nlrp1b+ macrophages: about 50%
[14]
  caspase-1 maturation (in words): blunted
[3]; 0.1 μM
  cell death induction (in words): failed to trigger a cytotoxic response
[3]; 1 μM
  cell death induction (in words): sufficient to induce robust pyroptosis
[3]
  time to reach 30% half-maximal level of pyroptosis: ≤ 3 h
[3]; rebuttal letter, on Figure 1a
  time to reach half-maximal induction of pyroptosis (35% cell death in the total cell population): about 3 hours

## CC(=O)N[C@H](C(=O)N1CCC[C@H]1B(O)O)C(C)C [aVBP]
[6]; 10 or 40 μM, 4, 8 or 24 h
  secretion of IL-1β and IL-18 (in words): failed to induce cytokine secretion
[7]
  caspase-1 maturation to p20 (in words): failed to elicit caspase-1 maturation
[1]; 10, 25 and 40 μM
  cell death induction (in words): failed to induce cytotoxicity
[3]; 10, 25 and 40 μM
  cell death induction (in words): failed to induce cytotoxicity
